This is an account of results in US20050119301A1, “Treatment of restenosis” (priority 2001, published 2005).

What all share (format): biochemical
The nature of test [1]: a-tocopheroxyl radical attenuating ability (TRAA) assay in micelles. The conditions noted are these: for TRAA, HTAC Micelle (positive) / TRAA, SDS Micelle (negative): 10 μM, relative rate constant of a-tocopheroxyl radical decay with/without sample, large = active. The protocol:
The a-tocopheroxyl radical attenuating ability (TRAA) assay has been described in detail by Witting et al. (1997). Briefly, one hundred mM stock solutions of cetyltrimethyl ammonium chloride (HTAC) and sodium dodecyl sulphate (SDS) were prepared in phosphate buffer. Micellular dispersions of a-tocopherol were prepared by diluting an ethanolic solution of a-tocopherol (0.2 M) into micelles at a final vitamin concentration of […]. This resulting solution was sonicated for 15 sec at which time it was completely homogenous.
Aliquots of the a-tocopherol-containing micells were placed into the neck of an ESR flat cell […] and placed 0.5 m from a 125 W Osram HQL-Mercury fluorescent bulb used as a UV light source. To increase the light intensity, the frosted casing of the bulb was removed. Samples were irradiated for 3 min, followed by thorough mixing and subsequent transfer of the flat cell to the corresponding temperature-controlled Dewar insert in the ESR cavity, where the sample was allowed to equilibrate to 37° C. This procedure afforded a-tocopheroxyl radical (a-TO) between […] as estimated against a 10 mM TPDI nitroxide standard. ESR spectra were obtained at 9.41 GHz with modulation amplitude 1.0 G, microwave power […], and modulation frequency 12.5 kHz using a Bruker ESP 300 ESR spectrometer fitted with an X-band cavity.
After accumulation of the T=0 min spectrum, the flat cell arrangement containing a-TO was removed from the ESR cavity and the solution was gently coaxed into the neck of the flat cell under positive pressure. The compound of choice was then added to give a final concentration of 10 mM and the treated sample was replaced in the cavity and allowed to equilibrate to standard conditions, and sampling was resumed. The time-dependent decay of ESR signal intensity for a-TO was measured both in the presence and absence of the added co-antioxidant (10 mM) using a sweep time of 20.5 sec, averaging the output from three successive sweeps at each time point, and averaging the results of three separate experiments.
Results are expressed as the relative rate constant of decay of a-tocopheroxyl radicals in the presence of the test sample divided by the relative rate constant of decay of a-tocopheroxyl radicals in the absence of the test sample. TRAA approaching unity is considered to have poor synergistic activity, whereas active compounds show large values because they eliminate the a-tocopheroxyl radicals immediately upon mixing. Ascorbate was used as a positive control.

Test [2] addresses T1, Soybean 15-lipoxygenase (SLO) (Glycine max, UniProt P08170).
T1 construct: purchased Sigma, St. Louis, Mo
T1 sequence (P08170 1-839): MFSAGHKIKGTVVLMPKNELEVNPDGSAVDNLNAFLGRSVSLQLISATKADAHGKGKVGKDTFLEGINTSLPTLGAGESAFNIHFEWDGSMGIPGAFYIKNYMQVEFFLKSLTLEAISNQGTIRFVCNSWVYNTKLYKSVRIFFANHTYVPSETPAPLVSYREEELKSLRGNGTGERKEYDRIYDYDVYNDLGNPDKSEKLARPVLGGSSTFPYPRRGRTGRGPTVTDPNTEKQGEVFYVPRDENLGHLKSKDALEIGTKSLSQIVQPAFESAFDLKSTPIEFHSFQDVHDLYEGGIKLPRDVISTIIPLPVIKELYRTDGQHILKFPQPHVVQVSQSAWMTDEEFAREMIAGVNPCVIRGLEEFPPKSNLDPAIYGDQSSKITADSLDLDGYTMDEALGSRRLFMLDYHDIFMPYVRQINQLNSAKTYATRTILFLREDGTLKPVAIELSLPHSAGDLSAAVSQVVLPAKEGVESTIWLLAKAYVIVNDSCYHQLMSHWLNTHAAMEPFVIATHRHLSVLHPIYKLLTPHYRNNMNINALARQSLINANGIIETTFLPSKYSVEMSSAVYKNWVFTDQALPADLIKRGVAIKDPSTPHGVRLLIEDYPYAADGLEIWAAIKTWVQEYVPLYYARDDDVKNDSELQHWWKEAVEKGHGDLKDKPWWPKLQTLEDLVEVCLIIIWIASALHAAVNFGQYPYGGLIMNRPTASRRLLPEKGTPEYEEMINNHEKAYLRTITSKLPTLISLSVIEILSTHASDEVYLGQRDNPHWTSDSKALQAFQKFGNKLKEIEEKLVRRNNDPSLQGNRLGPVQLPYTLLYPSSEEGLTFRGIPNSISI
As to the kind of experiment: Inhibition of lipoxygenase, SLO-induced oxidation of linoleate. More on the design: dose or concentration left out as unconfirmed. The protocol: Soybean 15-lipoxygenase (SLO) is a suitable model of 15-lipoxygenase and was therefore used to assess the ability of Cpd. 7, Cpd. 8 and Cpd. 12 to inhibit this enzyme. SLO-induced oxidation of linoleate was performed as described previously (Upston et al., 1996). Briefly, linoleate (100 mM) in PBS was oxidized by SLO (60 U/mL) in the absence and presence of 10 mM Cpd. 7, Cpd. 8 or Cpd. 12, or 100 mM eicosatetraynoic acid (ETYA, positive control). Formation of linoleate hydroperoxide was monitored by UV 234 nm using the Perkin Elmer's UV/Vis Lambda 40 spectrophotomneter. The test was performed twice as single analysis. An appropriate concentration of alcohol (ethanol and isopropanol; 0.13% -0.2% v/v) was included in the respective control samples.

The subject of test [3] is human LDL. The test is described as follows: Prevention of tocopherol-mediated peroxidation (anti-TMP test). Conditions: 10 mM. The protocol:
The test indirectly assesses the ability of a compound to synergise with a-tocopherol in human LDL undergoing mild and chemically controlled oxidation. Oxidation is measured by the accumulation of cholesterol ester hydroperoxides at a time point corresponding to 20% consumption of endogenous a-tocopherol.
Briefly, ascorbate and ubiquinol-10-free LDL (1 mM in apoB) was supplemented with an aliquot of a stock solution of the compound to be tested. The mixture was incubated at 37° C. for 10 min and subsequently oxidized at 37° C. with a low flux of water-soluble ROO generated from AAPH (4 mM). The time-dependent consumption of LDL a-tocopherol and accumulation of cholesteryllinolate hydroperoxide (Ch18:2-OOH) were monitored by HPLC with electrochemical and post-column chemiluminescence detection, respectively. The effectiveness of an antioxidant, assigned as its anti-TMP index (redox index), was defined as the relative amounts of Ch18:2-OOH formed with versus without the added antioxidant measured after 20% consumption of the endogenous a-tocopherol in the control sample (ie. in the absence in the antioxidant). […] Butylated hydroxytoluene (BHT, 10 mM) was used as a positive control.

Where “and” joins values, the source holds several entries; their conditions need not be identical. Identical values can stand only once.

Regarding `O=C1c2ccc(O)cc2OCC1c1ccc(O)cc1` (centres unmarked) [Cpd. 5], the “TRAA, HTAC Micelle (positive)” value in test [1] is 5.3 and 5.4.

Regarding `Oc1ccc(C2COc3cc(O)ccc3C2O)cc1` (centres unmarked) [Cpd. 7], the “inhibition of soybean 15-lipoxygenase (in words)” value (“inhibition” below) in test [2] is given as “neither Cpd. 7 nor Cpd. 8 were able to inhibit SLO”. The “LDL protective action in the presence of Vitamin E (in words)” value (from here on “LDL protective action in the presence”) in test [3] is reported as “low levels of activity”. Besides, in test [1], the “TRAA, HTAC Micelle (positive)” value worked out at 1.4 ± 0.5 and the “TRAA, SDS Micelle (negative)” value came out at 1.9 ± 0.2.

As for `Oc1ccc(C2=Cc3ccc(O)cc3OC2)cc1` [Cpd. 12], the “inhibition” value in test [2] was “effective inhibitor of lipoxygenase type-1”. Also, the “LDL protective action in the presence” value in test [3] was “strong LDL protective action (low redox index)”. For the same compound, in test [1], the “elimination of a-tocopheroxyl radicals (in words)” value is “induced high rate of decay and was active at eliminating a-tocopheroxyl radicals”; the “TRAA, HTAC Micelle (positive)” value was 26.77 and 25.70; the “TRAA, SDS Micelle (negative)” value is reported as “Almost immediate”.

Regarding `Oc1ccc(C2COc3cc(O)ccc3C2O)cc1` (centres unmarked) [Cpd. 8], in test [2], the “inhibition” value is recorded as “neither Cpd. 7 nor Cpd. 8 were able to inhibit SLO”. Besides, in test [3], the “LDL protective action in the presence” value was “low levels of activity”. In addition, in test [1], the “TRAA, HTAC Micelle (positive)” value was determined as 2.37; the “TRAA, SDS Micelle (negative)” value is 1.26 and 1.58.
